Columns and labels:
Alpha 2B = biological target: T1, Alpha 2B (Homo sapiens, UniProt P18089); test: alpha-adrenergic receptor binding, Alpha 2B; details: result in words
T1 construct: expressed in transfected cells
T1 sequence (P18089 1-450): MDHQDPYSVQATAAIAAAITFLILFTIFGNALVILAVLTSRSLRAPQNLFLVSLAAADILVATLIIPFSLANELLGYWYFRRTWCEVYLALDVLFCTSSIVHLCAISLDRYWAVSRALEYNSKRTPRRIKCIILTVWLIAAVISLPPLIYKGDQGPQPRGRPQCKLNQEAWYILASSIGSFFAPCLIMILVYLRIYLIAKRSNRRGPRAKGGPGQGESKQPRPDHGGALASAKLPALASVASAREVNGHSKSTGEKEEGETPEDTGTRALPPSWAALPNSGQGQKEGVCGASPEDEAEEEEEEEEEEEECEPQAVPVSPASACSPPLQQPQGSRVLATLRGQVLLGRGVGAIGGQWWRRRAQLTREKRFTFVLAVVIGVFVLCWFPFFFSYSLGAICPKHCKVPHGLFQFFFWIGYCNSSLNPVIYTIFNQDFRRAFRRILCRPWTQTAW
Procedure: (§1) As known in the art, human monoamine GPCR binding profiles were obtained using heterologously expressed cloned human GPCRs in the binding experiments. Both pKi and IC50 (nM concentration) values were obtained as well as an average value of each from at least three determinations.
(§2) Dopaminergic receptors D2A, D2B, D3, and D4 were also tested.

[1] = plasma levels of 3-OH gepirone after administration of gepirone; format: in vivo; details: human subjects administered a dose of gepirone; FIG. 2; result in words
Procedure: “Time (H)” represents time after administration.
Each sample corresponds to a 0.5 ml plasma sample, extracted with 6 ml of (2:1) (v/v) hexane:chloroform for 1 hour. After separation by centrifuge, the organic layer is transferred to a 10 ml conical tube and 90 ul of 1% formic acid is added. The tube is vortexed for 10 minutes and centrifuged for 5 minutes. About 80 ul of the formic acid layer is transferred into injection vials for HPLC/MS analysis.

D2B = biological target: T2, D2B (Homo sapiens, UniProt P14416); test: dopaminergic receptor binding, D2B; details: result in words
T2 construct: expressed in transfected cells
Procedure: as §1, §2

Alpha 2A = biological target: T3, Alpha 2A (Homo sapiens, UniProt P08913); test: alpha-adrenergic receptor binding, Alpha 2A; details: result in words
T3 construct: expressed in transfected cells
T3 sequence (P08913 1-465): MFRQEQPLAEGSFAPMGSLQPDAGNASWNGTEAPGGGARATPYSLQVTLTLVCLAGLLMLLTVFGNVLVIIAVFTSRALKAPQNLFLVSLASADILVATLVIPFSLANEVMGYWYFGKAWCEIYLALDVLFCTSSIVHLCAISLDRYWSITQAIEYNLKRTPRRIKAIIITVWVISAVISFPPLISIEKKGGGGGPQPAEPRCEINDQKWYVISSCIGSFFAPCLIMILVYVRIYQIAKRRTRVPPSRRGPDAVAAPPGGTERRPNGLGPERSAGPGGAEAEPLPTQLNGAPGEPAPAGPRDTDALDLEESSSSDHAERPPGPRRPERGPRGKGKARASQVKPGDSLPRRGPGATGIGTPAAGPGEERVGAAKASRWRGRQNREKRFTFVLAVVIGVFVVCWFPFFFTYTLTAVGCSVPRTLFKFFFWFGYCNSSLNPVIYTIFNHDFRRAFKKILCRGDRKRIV
Procedure: as §1, §2

D2A = biological target: T4, D2A (Homo sapiens, UniProt P14416); test: dopaminergic receptor binding, D2A; details: result in words
T4 construct: expressed in transfected cells
Procedure: as §1, §2

Alpha 2C receptor = biological target: T5, Alpha 2C receptor (Homo sapiens, UniProt P18825); test: alpha-adrenergic receptor binding, Alpha 2C; details: result in words
T5 construct: expressed in transfected cells
T5 sequence (P18825 1-462): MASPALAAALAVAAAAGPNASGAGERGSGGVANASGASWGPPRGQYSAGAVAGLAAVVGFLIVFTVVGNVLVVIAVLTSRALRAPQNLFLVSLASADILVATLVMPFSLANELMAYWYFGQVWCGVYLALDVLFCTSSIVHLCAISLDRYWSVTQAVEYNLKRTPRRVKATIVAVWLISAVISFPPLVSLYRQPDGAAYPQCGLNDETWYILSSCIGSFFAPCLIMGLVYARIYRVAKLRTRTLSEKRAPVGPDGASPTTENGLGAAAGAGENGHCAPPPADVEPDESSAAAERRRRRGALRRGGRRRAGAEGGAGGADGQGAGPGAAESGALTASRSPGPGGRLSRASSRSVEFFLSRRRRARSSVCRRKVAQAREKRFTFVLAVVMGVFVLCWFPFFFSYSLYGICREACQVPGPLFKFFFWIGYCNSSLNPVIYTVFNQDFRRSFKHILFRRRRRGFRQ
Procedure: as §1, §2

5-HT1A receptor = biological target: T6, 5-HT1A receptor (Homo sapiens, UniProt P08908); test: human monoamine GPCR binding profile, 5-HT1A; details: at least about 30 fold to over 1500 fold lower IC50
T6 construct: expressed in transfected cells
T6 sequence (P08908 1-422): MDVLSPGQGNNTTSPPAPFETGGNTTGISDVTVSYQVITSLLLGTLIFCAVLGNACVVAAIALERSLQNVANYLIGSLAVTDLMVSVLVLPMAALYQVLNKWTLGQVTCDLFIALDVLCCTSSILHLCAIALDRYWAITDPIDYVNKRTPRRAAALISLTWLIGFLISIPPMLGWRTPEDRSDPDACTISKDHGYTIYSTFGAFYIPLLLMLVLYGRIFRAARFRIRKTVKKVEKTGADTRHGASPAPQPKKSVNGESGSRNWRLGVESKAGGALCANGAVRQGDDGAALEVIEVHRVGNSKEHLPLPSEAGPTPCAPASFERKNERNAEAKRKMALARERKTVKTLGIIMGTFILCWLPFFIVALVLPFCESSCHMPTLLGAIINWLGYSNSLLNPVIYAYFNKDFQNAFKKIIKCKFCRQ
Source text: as §1

D3 = biological target: T7, D3 (Homo sapiens, UniProt P35462); test: dopaminergic receptor binding, D3; details: result in words
T7 construct: expressed in transfected cells
Procedure: as §1, §2

[2] = cited from earlier work; for half-life: result in words

T2 sequence (P14416 1-414 isoform P14416-2): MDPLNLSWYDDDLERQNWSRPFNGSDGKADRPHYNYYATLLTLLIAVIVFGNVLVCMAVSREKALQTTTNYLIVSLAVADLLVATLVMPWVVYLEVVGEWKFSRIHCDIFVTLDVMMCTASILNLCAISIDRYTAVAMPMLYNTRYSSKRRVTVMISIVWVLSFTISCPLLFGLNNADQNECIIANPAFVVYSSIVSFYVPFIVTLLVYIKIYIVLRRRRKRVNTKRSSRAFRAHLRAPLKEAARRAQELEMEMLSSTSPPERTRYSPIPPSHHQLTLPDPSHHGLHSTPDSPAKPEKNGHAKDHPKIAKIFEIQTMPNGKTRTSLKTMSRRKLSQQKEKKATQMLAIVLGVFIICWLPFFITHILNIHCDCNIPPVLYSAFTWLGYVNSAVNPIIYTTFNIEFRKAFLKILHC
T7 sequence (P35462 whole entry): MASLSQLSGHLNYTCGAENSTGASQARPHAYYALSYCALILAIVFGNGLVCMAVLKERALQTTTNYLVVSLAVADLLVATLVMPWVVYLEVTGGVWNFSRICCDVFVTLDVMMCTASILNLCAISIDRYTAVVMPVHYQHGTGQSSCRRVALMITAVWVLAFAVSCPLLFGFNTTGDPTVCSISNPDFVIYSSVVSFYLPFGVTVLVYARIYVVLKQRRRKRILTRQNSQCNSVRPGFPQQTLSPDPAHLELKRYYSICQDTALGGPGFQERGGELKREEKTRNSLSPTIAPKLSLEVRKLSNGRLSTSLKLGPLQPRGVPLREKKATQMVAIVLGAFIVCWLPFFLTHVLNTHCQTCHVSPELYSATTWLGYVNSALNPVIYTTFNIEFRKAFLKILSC
T4 sequence (P14416 whole entry): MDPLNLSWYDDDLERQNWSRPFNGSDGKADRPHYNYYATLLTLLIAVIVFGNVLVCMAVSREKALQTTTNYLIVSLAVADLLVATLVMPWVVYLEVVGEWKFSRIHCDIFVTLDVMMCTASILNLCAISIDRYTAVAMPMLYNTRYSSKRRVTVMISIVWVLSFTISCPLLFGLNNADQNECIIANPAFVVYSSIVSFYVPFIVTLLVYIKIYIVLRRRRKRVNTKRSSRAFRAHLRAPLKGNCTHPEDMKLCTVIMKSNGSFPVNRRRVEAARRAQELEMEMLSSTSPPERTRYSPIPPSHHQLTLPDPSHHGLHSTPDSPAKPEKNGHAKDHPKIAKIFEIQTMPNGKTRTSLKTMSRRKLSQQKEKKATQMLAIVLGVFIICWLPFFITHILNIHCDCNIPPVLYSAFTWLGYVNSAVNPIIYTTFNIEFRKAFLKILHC

Q: Which results are given for CC1(C)CC(=O)N(CCCCN2CCN(c3ncccn3)CC2)C(=O)C1O (centres unmarked) [3-OH gepirone, 4,4-Dimethyl-3-hydroxy-1-[4-[4-(2-pyrimidinyl)-1-piperazinyl]butyl]-2,6-piperidinedione]?
A: affinity at Alpha 2B (Alpha 2B): did not display significant affinity; plasma levels of 3-OH gepirone [1]: available quickly and persists in the plasma for extended periods of time; dopaminergic binding at D2B (D2B): insignificant; affinity at Alpha 2A (Alpha 2A): did not display significant affinity; dopaminergic binding at D2A (D2A): insignificant; binding at the Alpha 2C receptor (Alpha 2C receptor): weak binding; selectivity for the 5-HT1A receptor compared to the 5-HT2, 5-HT6, and 5-HT7 receptors (fold lower IC50) (5-HT1A receptor): at least 30 fold; dopaminergic binding at D3 (D3): insignificant

Q: Which half-life [2] does the source give for O=C1CC2(CCCC2)CC(=O)N1CCCCN1CCN(c2ncccn2)CC1 [buspirone] here?
A: very short

Q: For CC1(C)CC(=O)N(CCCCN2CCN(c3ncccn3)CC2)C(=O)C1 [gepirone, 4-dimethyl-1-[4-[4-(2-pyrimidinyl)-1-piperazinyl]butyl]-2,6-piperidinedione], which bioavailability ([2]; delivered orally) is on record?
A: 14-18%

Q: What about the half-life [2] of the same molecule?
A: very short

Reference: patent US20030220346A1 (priority 2003, published 2003)
